From patent publication US5096715A, “Method and means for treating alcoholism by extinguishing the alcohol-drinking response using a transdermally administered opiate antagonist” (Alko Ltd., priority 1989, dated 1992)
“Also recorded” adds a separate entry of the source.

How the values were obtained:
[1] = several combinations of vehicles and enhancers; cited from earlier work
[2] = cited from earlier work
[3] = human
[4] = humans; cited from earlier work

Row | SMILES | rates for naloxone [1] | half-life in the body [2] | naloxone present to block alcohol reinforcement at end of session ([3]; 4-7 hrs later, transdermal) | systemic delivery rate ([3]; skin area of 900-1000 cm^2) | time to deliver the entire 30 mg systemically ([3]; including lag time of 18 min) | severe side-effects [4]
1 | C=CCN1CC[C@]23c4c5ccc(O)c4O[C@H]2C(=O)CC[C@@]3(O)[C@H]1C5 [naloxone] | over 300 μg/cm^2 /hr | desirably short half-life | Sufficient quantities of naloxone to block alcohol reinforcement would still be present; also recorded: Sufficient amounts of naloxone to block alcohol reinforcement would still be present | about 5 mg/min | half an hour | –
2 | O=C1CC[C@@]2(O)[C@H]3Cc4ccc(O)c5c4[C@@]2(CCN3CC2CC2)[C@H]1O5 [naltrexone] | – | – | – | – | – | free of severe side-effects
